Laboratory results published in patent publication US12629415B2, “Vaccine adjuvants” (THE PROVOST, FELLOWS, FOUNDATION SCHOLARS, AND THE OTHER …, priority 2018, dated 2026).
Entries after “also recorded” stand apart in the source; their conditions may differ.

Legend:
[1] = test system: PBMCs or CBMCs; assay: Quantitative RT-PCR of TNFα, IFNα and CXCL10 mRNA; assay type: cell-based, human; conditions: CBMCs vs PBMCs
Description: (§1) Poly(I:C) (5 μg/ml) (Invivogen), Poly(dA:dT) (5 μg/ml) (Sigma-Aldrich), 2′3′ cGAMP (10 μg/ml), 5′ triphosphate double stranded RNA (5′ ppp dsRNA) (2.5 μg/ml) and HSV-60 (2 μg/ml) (all from Invivogen) were transfected into PBMCs or CBMCs using TransIT-X2 (Mirus).
Quantitative RT-PCR—Total RNA from PBMCs or CBMCs was extracted using trizol extraction as previously described (16) and was reverse transcribed using MMLV Reverse Transcriptase (Promega) according to the manufacturer's protocol. This cDNA served as template for amplification of target genes, along with the ‘housekeeping’ gene βActin, by real-time PCR with SensiFast SYBR Green (Bioline) to determine the relative amounts of CXCL10, IFNα and TNFα mRNA. The ABI 7900HT system (Applied Biosystems) was used for real-time PCR, and the cycling threshold method (2^−(ΔΔCt)) was used for relative quantification by comparative method after normalization to βActin expression.

[2] = test system: mononuclear cells from cord blood, children's blood or adult blood; assay: HEK-Blue IFNα/β and TNFα assays on mononuclear cells of cord blood, children and adults; assay type: cell-based, human; conditions: transfection 24 h, 4-24 months, 2-5 years, 6-11 years
Excerpt: Umbilical cord blood samples were obtained from term births following normal pregnancy, labour and delivery at National Maternity Hospital (NMH), Holles St, Dublin 2. […] Venous blood from infants, children and adolescents of various ages was collected during elective surgical procedures where no indication of infection was present (such as hydrocele repair, umbilical hernia repair, onychocryptosis, orchipexy repair) in Our Lady's Children's Hospital Crumlin (OLCHC), Dublin 12. […] Volumes drawn were age and weight dependent, according to standard, approved guidelines. Ethics approval was obtained from the Ethics Committees of NMH and OLCHC and informed consent was obtained from each subject or their parent/guardian. Adult blood samples were from healthy adults, supplied by the Irish Blood Transfusion Service. • Poly(I:C), Poly(dA:dT) and cGAMP were obtained from Invivogen • Poly (dA:dT) is a repetitive synthetic double-stranded DNA sequence of poly(dA-dT)-poly(dT-dA) http://www.invivopen.com/poly-dadt-naked • Poly (I:C) comprises long strands of inosine poly(I) homopolymer annealed to strands of cytidine poly(C) homopolymer http://www.invivogen.com/polyic-hmw. • cGAMP is cyclic [G(2′,5′)pA(3′,5′)p]; Formula: […], 2Na Methodology
Isolation of mononuclear cells and monocytes—Primary PBMCs or CBMCs were isolated from healthy human blood or cord blood. Monocytes were isolated by negative selection using Monocyte Isolation Kit II (Miltenyi). Monocyte purity was assessed using CD14 staining and was routinely 85-95%. Cells were cultured at 37° C., 5% CO2, 95% air in RPMI-1640, with stable 2.5 mM L-glutamine and 0.5 mM sodium pyruvate with 10% FBS (all from Sigma-Aldrich).
as §1
Measurement of cytokines—HEK Blue TNFα/IFNα/β Assays were performed as per the manufacturer's (Invivogen) instructions using Quanti-Blue Detection Reagent. SEAP levels were determined using a spectrophotometer plate reader at 630 nm. IFNα (3425-1H-6, Mabtech) and IP-10 (DY266, R&D Systems) were detected by sandwich ELISA. IFNα ELISA used pan specific IFNα antibodies, which allows detection of IFNα subtypes 1/13, 2, 4, 5, 6, 7, 8, 10, 14, 16 and 17. BioLegend LEGENDplex™ Human Inflammation Panel (13-plex) was carried out as per manufacturer's (Biolegend) instructions to determine levels of IFNγ, IL-10, IL-12p70 and IL-23. A BD LSR Fortessa cell analyser was used to acquire samples and BioLegend LEGENDplex™ software was used for analysis.

poly(deoxyadenylic-thymidylic) acid [Poly(dA:dT)]
CXCL10 mRNA expression ([1]; 4 h): no inhibition of transcription | IFNα mRNA expression ([1]; 24 h): no inhibition of transcription | TNFα mRNA expression ([1]; CNA 4 h, LPS 2 h): no significant difference in TNFα levels | TNFα production across age groups [2]: maintenance of cord blood responsiveness to CNA was also observed for both Poly(I:C) and Poly(dA:dT)-induced TNFα production to the age of 24 months | production of type I IFN across age groups [2]: maintained throughout childhood; also recorded: maintained across all age groups
